# Data published in article PMC7914897, “Cytotoxic Potential of a-Azepano- and 3-Amino-3,4-SeCo-Triterpenoids” (International Journal of Molecular Sciences, 2021).
# Like-named read-outs stand apart in the source and are kept apart here.
# What was measured:
# [1] = test system: A2780 (ovarian carcinoma); assay: SRB cytotoxicity assay, 72 h; assay type: cell-based, human; settings: A2780, 72 h, cut-off 30 µM
# Summary of the method: (§1)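 EC50 values reflect percent surviving cells versus untreated controls, read at 570 nm after SRB staining of TCA-fixed monolayers. Dosing spanned 0–30 µM over 72 h.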
# [2] = test system: A375 (malignant melanoma); assay: SRB cytotoxicity assay, 72 h; assay type: cell-based, human; settings: A375, 72 h, cut-off 30 µM
# Summary of the method: as §1
# [3] = test system: FaDu (hypopharyngeal carcinoma); assay: SRB cytotoxicity assay, 72 h; assay type: cell-based, human; settings: cut-off 30 µM
# Summary of the method: as §1
# [4] = test system: HT29 (colorectal carcinoma); assay: SRB cytotoxicity assay, 72 h; assay type: cell-based, human; settings: HT29, 72 h, cut-off 30 µM
# Summary of the method: as §1
# [5] = test system: MCF-7 (breast carcinoma); assay: SRB cytotoxicity assay, 72 h; assay type: cell-based, human; settings: MCF-7, 72 h, cut-off 30 µM
# Summary of the method: as §1
# [6] = test system: HL-60(TB) (Leukemia); assay: NCI-60 screen (SRB, 48 h); assay type: cell-based; settings: Homo sapiens; for CC50: read-out: LC50 (the source's name)
# [7] = test system: SR (Leukemia); assay: NCI-60 screen (SRB, 48 h); assay type: cell-based; settings: for GI50 / CC50: Homo sapiens; for CC50: read-out: LC50 (the source's name)
# [8] = test system: MDA-MB-435 (Melanoma); assay: NCI-60 screen (SRB, 48 h); assay type: cell-based; settings: for GI50 / IC (TGI) / CC50: Homo sapiens; for GI50 / CC50: MDA-MB-435; for IC (TGI): MDA-MB-435, 48 h, read-out: TGI; for CC50: read-out: LC50 (the source's name)
# [9] = test system: BT-549 (Breast cancer); assay: NCI-60 screen (SRB, 48 h); assay type: cell-based; settings: Homo sapiens; for GI50 / CC50: BT-549; for IC (TGI): BT-549, 48 h; for CC50: read-out: LC50 (the source's name)
# [10] = test system: NSC lung cancer subpanel; assay: NCI-60 screen, subpanel; settings: Homo sapiens; for IC (TGI): 48 h, read-out: TGI MG_MID; for GI50: read-out: GI50 MG_MID; for CC50: read-out: LC50 MG_MID
# [11] = test system: CCRF-CEM (Leukemia); assay: NCI-60 screen (SRB, 48 h); settings: Homo sapiens; for IC (TGI): 48 h, read-out: TGI; for CC50: read-out: LC50
# [12] = test system: RPMI-8226 (Leukemia); assay: NCI-60 screen (SRB, 48 h); settings: Homo sapiens; for GI50: RPMI-8226; for IC (TGI): RPMI-8226, 48 h, read-out: TGI; for CC50: RPMI-8226, read-out: LC50
# [13] = test system: HCT-116 (Colon cancer); assay: NCI-60 screen (SRB, 48 h); settings: Homo sapiens; for GI50: HCT-116; for IC (TGI): read-out: TGI; for CC50: HCT-116, read-out: LC50
# [14] = test system: HT29 (Colon cancer); assay: NCI-60 screen (SRB, 48 h); settings: Homo sapiens; for GI50: HT-29; for IC (TGI): HT-29, 48 h, read-out: TGI; for CC50: HT-29, read-out: LC50
# [15] = test system: SF-268 (CNS cancer); assay: NCI-60 screen (SRB, 48 h); settings: Homo sapiens; for GI50: SF-268; for IC (TGI): SF-268, 48 h, read-out: TGI; for CC50: SF-268, read-out: LC50
# [16] = test system: SF-539 (CNS cancer); assay: NCI-60 screen (SRB, 48 h); settings: Homo sapiens; for GI50: SF-539; for IC (TGI): SF-539, 48 h, read-out: TGI; for CC50: SF-539, read-out: LC50
# [17] = test system: U251 (CNS cancer); assay: NCI-60 screen (SRB, 48 h); settings: Homo sapiens; for GI50: U-251; for IC (TGI): U-251, 48 h, read-out: TGI; for CC50: U-251, read-out: LC50
# [18] = test system: SK-MEL-5 (Melanoma); assay: NCI-60 screen (SRB, 48 h); settings: Homo sapiens; for GI50: SK-MEL-5; for IC (TGI): SK-MEL-5, 48 h, read-out: TGI; for CC50: SK-MEL-5, read-out: LC50
# [19] = test system: IGROV1 (Ovarian cancer); assay: NCI-60 screen (SRB, 48 h); settings: Homo sapiens
# [20] = test system: OVCAR-5 (Ovarian cancer); assay: NCI-60 screen (SRB, 48 h); settings: for GI50 / IC (TGI) / CC50: Homo sapiens; for GI50: OVCAR-5; for IC (TGI): OVCAR-5, 48 h, read-out: TGI; for CC50: OVCAR-5, read-out: LC50
# [21] = test system: SK-OV-3 (Ovarian cancer); assay: NCI-60 screen (SRB, 48 h); settings: Homo sapiens; for GI50: SK-OV-3; for IC (TGI): SK-OV-3, 48 h, read-out: TGI; for CC50: SK-OV-3, read-out: LC50
# [22] = test system: CAKI-1 (Renal cancer); assay: NCI-60 screen (SRB, 48 h); settings: for GI50 / IC (TGI) / CC50: Homo sapiens; for GI50: CAKI-1; for IC (TGI): CAKI-1, 48 h, read-out: TGI; for CC50: CAKI-1, read-out: LC50
# [23] = test system: RXF 393 (Renal cancer); assay: NCI-60 screen (SRB, 48 h); settings: Homo sapiens; for GI50: RXF 393; for IC (TGI): RXF 393, 48 h, read-out: TGI; for CC50: RXF 393, read-out: LC50
# [24] = test system: TK-10 (Renal cancer); assay: NCI-60 screen (SRB, 48 h); settings: Homo sapiens; for GI50: TK-10; for IC (TGI): TK-10, 48 h, read-out: TGI; for CC50: TK-10, read-out: LC50
# [25] = test system: PC-3 (Prostate cancer); assay: NCI-60 screen (SRB, 48 h); settings: Homo sapiens; for GI50: PC-3; for IC (TGI): PC-3, 48 h, read-out: TGI; for CC50: PC-3, read-out: LC50
smiles,measurement,setting,value
"CC1(C)NCCC[C@]2(C)[C@H]3C=CC4=C5C[C@@](C)(CO)CC[C@]5(C)CC[C@@]4(C)[C@]3(C)CC[C@@H]12 [Compound 6, azepano-glycyrrhetol-diene]",EC50,"[1]; Homo sapiens, read-out: EC50",3.93 ± 0.5 µM
same,EC50,"[2]; Homo sapiens, A-375, 72 h, read-out: EC50",6.65 ± 0.3 µM
same,EC50,"[3]; Homo sapiens, read-out: EC50",4.44 ± 0.6 µM
same,EC50,"[4]; Homo sapiens, HT-29, read-out: EC50",4.84 ± 0.5 µM
same,EC50,"[5]; Homo sapiens, MCF7, read-out: EC50",7.1 ± 0.5 µM
same,GI50,[6],2.63 µM
same,IC (TGI),[6]; 48 h,7.02 µM
same,CC50,[6],32.6 µM
same,TGI,[7],7.17 µM
same,GI50,[7],2.42 µM
same,CC50,[7],> 100 µM
same,GI50,[8],3.76 µM
same,IC (TGI),[8],14 µM
same,CC50,[8],43 µM
same,Growth % of the Most Sensitive Cell Lines,"[8]; MDA-MB-435, 1 dose 10 µM",−95.56%
same,GI50,[9],3.46 µM
same,IC (TGI),[9],12.7 µM
same,CC50,[9],39 µM
same,IC (TGI),[10],11.2 µM
same,GI50,[10],3.17 µM
same,CC50,[10],39.1 µM
same,GI50,[11],3.52 µM
same,IC (TGI),[11],14.5 µM
same,CC50,[11],65.3 µM
same,GI50,[12],3.91 µM
same,IC (TGI),[12],14.9 µM
same,CC50,[12],52.9 µM
same,GI50,[13],2.73 µM
same,IC (TGI),"[13]; HCT-116, 48 h",10.6 µM
same,CC50,[13],52.9 µM
same,GI50,[14],3.25 µM
same,IC (TGI),[14],13.8 µM
same,CC50,[14],41.8 µM
same,GI50,[15],3.27 µM
same,IC (TGI),[15],11.6 µM
same,CC50,[15],49.6 µM
same,GI50,[16],2.69 µM
same,IC (TGI),[16],9.26 µM
same,CC50,[16],33 µM
same,GI50,[17],4.17 µM
same,IC (TGI),[17],15.9 µM
same,CC50,[17],45.5 µM
same,GI50,[18],2.14 µM
same,IC (TGI),[18],4.94 µM
same,CC50,[18],14 µM
same,GI50,[19]; IGROV-1,4.08 µM
same,IC (TGI),"[19]; IGROV-1, 48 h, read-out: TGI",14.8 µM
same,CC50,"[19]; IGROV-1, read-out: LC50",46.6 µM
same,GI50,[20],1.24 µM
same,IC (TGI),[20],25.3 µM
same,CC50,[20],51.6 µM
same,Growth % of the Most Sensitive Cell Lines,"[20]; OVCAR-5, 1 dose 10 µM",−98.74%
same,GI50,[21],14.5 µM
same,IC (TGI),[21],28.6 µM
same,CC50,[21],56.2 µM
same,Growth % of the Most Sensitive Cell Lines,"[22]; CAKI-1, 1 dose 10 µM",−96.49%
same,GI50,[22],3.7 µM
same,IC (TGI),[22],13.8 µM
same,CC50,[22],39.3 µM
same,GI50,[23],1.84 µM
same,IC (TGI),[23],4.15 µM
same,CC50,[23],9.35 µM
same,GI50,[24],2.66 µM
same,IC (TGI),[24],7.15 µM
same,CC50,[24],27.3 µM
same,GI50,[25],3.05 µM
same,IC (TGI),[25],12.3 µM
same,CC50,[25],38.7 µM
"CC1(C)CC[C@]2(CO)CC[C@]3(C)C(=CC[C@@H]4[C@@]5(C)CCCNC(C)(C)[C@@H]5CC[C@]43C)[C@@H]2C1 [Compound 3, azepanoerythrodiol]",EC50,[1],n.s.
same,EC50,[2],n.s.
same,EC50,[3],n.s.
same,EC50,[4],n.s.
same,EC50,[5],n.s.
same,GI50,[6],1.95 µM
same,CC50,[6],> 100 µM
same,TGI,[7],> 100 µM
same,GI50,[7],2.22 µM
same,CC50,[7],> 100 µM
same,GI50,[8],1.71 µM
same,IC (TGI),[8],3.36 µM
same,CC50,[8],6.59 µM
same,GI50,[9],1.01 µM
same,IC (TGI),[9],24.5 µM
same,CC50,[9],59.2 µM
same,IC (TGI),[10],17.8 µM
same,GI50,[10],2.87 µM
same,CC50,[10],44.1 µM
same,GI50,[11],2.41 µM
same,IC (TGI),[11],8.96 µM
same,CC50,[11],> 100 µM
same,GI50,[12],2.71 µM
same,IC (TGI),[12],10.1 µM
same,CC50,[12],> 100 µM
same,GI50,[13],1.64 µM
same,activity at 10 µM,"[13]; HCT-116, 48 h, read-out: Growth % of the Most Sensitive Cell Lines",-85.8%
same,IC (TGI),"[13]; HCT-116, 48 h",3.11 µM
same,CC50,[13],5.92 µM
same,GI50,[14],1.59 µM
same,IC (TGI),[14],3.62 µM
same,CC50,[14],8.23 µM
same,GI50,[15],2.9 µM
same,IC (TGI),[15],9.77 µM
same,CC50,[15],65.6 µM
same,GI50,[16],11 µM
same,IC (TGI),[16],2.41 µM
same,CC50,[16],52.7 µM
same,GI50,[17],1.94 µM
same,IC (TGI),[17],4.18 µM
same,CC50,[17],9 µM
same,GI50,[18],1.68 µM
same,IC (TGI),[18],3.14 µM
same,CC50,[18],5.86 µM
same,GI50,[20],11.9 µM
same,IC (TGI),[20],24.6 µM
same,CC50,[20],51 µM
same,GI50,[21],14.1 µM
same,IC (TGI),[21],28.9 µM
same,CC50,[21],59.2 µM
same,GI50,[22],3.05 µM
same,IC (TGI),[22],13.7 µM
same,CC50,[22],53.6 µM
same,GI50,[23],2.88 µM
same,IC (TGI),[23],11.7 µM
same,CC50,[23],48.6 µM
same,GI50,[24],4.64 µM
same,IC (TGI),[24],16.7 µM
same,CC50,[24],49.9 µM
same,GI50,[25],1.48 µM
same,IC (TGI),[25],3.33 µM
same,CC50,[25],7.47 µM
